Results on 15 compounds are retold here after patent US20250059179A1, “Heterocyclic Compounds and Methods of Use” (AMGEN INC., priority 2021, published 2025).

Assay [1] concerns Phosphorylation of ERK1/2 in A-427 cells. The experiment in a line: Phospho-ERK1/2 MSD Assay. To be noted: Homo sapiens, A-427, 2 h, 2 h compound treatment, read-out: pERK (A427 cells) IC50. It counts as cell-based. A digest of the protocol:
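ERK1/2 phosphorylation measured by Meso Scale whole-cell lysate assay after A-427 cells were exposed to a titration of compound for 2 h at 37 °C.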

Assay [2] concerns the target GDP-bound KRAS protein (aa 1-169), containing both G12D and C118A amino acid substitutions (Homo sapiens, UniProt P01116, C118A/G12D). The experiment in a line: KRAS G12D Coupled Nucleotide Exchange Assay.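 Note: IC50 obtained by fitting the AlphaScreen signal with a four-parameter logistic curve.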 It counts as biochemical. The following applies: 2 h compound pre-incubation; SOS-mediated nucleotide exchange, cRAF AlphaScreen readout. Background: Alpha assays give light when donor and acceptor beads are brought close together.

The target of assay [3] is His-tagged KRAS G12D protein (Homo sapiens, UniProt P01116, G12D). The assay can be described thus: KRAS G12D TR-FRET Assay.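 Note: europium anti-His antibody paired with streptavidin-d2 as FRET partners, initial 30 min incubation, then peptide 1 h and detection reagents 1 h, all at room temperature.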 Type of assay: binding. To be noted: biotinylated KRPep-2d substrate, 10 μM GDP. For orientation: TR-FRET usually uses a lanthanide donor and a delayed reading to cut background.

The structures appear in SMILES notation.

Sequence of GDP-bound KRAS protein (aa 1-169), containing both G12D and C118A amino acid substitutions (P01116 1-169 isoform P01116-2 G12D/C118A): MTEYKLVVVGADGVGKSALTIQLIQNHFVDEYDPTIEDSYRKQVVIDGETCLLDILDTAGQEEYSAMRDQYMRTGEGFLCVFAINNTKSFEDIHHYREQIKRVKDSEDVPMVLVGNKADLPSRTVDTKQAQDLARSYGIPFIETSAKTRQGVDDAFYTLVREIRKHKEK
Sequence of His-tagged KRAS G12D protein (P01116 1-188 isoform P01116-2 G12D): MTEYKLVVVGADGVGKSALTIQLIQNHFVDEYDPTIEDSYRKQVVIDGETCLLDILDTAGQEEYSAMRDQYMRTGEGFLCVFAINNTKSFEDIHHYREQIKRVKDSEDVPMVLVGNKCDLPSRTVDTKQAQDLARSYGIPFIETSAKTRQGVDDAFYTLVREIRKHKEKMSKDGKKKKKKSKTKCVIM

Broadly, the IC50 is the point on the concentration scale where inhibition reaches its midpoint. Regarding `Nc1nc2c(-c3c(Cl)cc4c(N5[C@@H]6CNC[C@H]5COC6)nc(OCC56CCCN5CC(F)(F)C6)nc4c3F)ccc(F)c2s1` (stereo partly drawn) [Example 126, 4-(4-((1R,5S)-3-oxa-7,9-diazabicyclo[3.3.1]nonan-9-yl)-6-chloro-2-((2,2-difluorotetrahydro-1H-pyrrolizin-7a(5H)-yl)methoxy)-8-fluoroquinazolin-7-yl)-7-fluorobenzo[d]thiazol-2-amine], the half-maximal inhibitory concentration (IC50) came out at 896 nM in assay [1] and 12 nM in assay [3]. Besides, the “Avg 2 h Coupled Exchange IC50” value in assay [2] turned out to be 10 nM.

In the case of `CN1CC[C@@H]1COc1nc(N2CCNCC2)c2cc(Cl)c(-c3cccc4sc(N)nc34)c(F)c2n1` [Example 58, 4-(6-chloro-8-fluoro-2-(((R)-1-methylazetidin-2-yl)methoxy)-4-(piperazin-1-yl)quinazolin-7-yl)benzo[d] thiazol-2-amine], the results for the IC50 in assay [1] and in assay [3] were 18200 nM and 444 nM, respectively. For the same compound, in assay [2], the “Avg 2 h Coupled Exchange IC50” value was 176 nM.

Regarding `Nc1nc2c(-c3c(Cl)cc4c(N5[C@@H]6CNC[C@H]5COC6)nc(OC[C@]56CCCN5C[C@H](F)C6)nc4c3F)ccc(F)c2s1` [Example 124, 4-(4-((1R,5S)-3-oxa-7,9-diazabicyclo[3.3.1]nonan-9-yl)-6-chloro-8-fluoro-2-(((2R,7aR)-2-fluorotetrahydro-1H-pyrrolizin-7a(5H)-yl)methoxy)quinazolin-7-yl)-7-fluorobenzo[d]thiazol-2-amine], the IC50 is 287 nM in assay [1] and 7 nM in assay [3]. In addition, in assay [2], the “Avg 2 h Coupled Exchange IC50” value stood at 6 nM.

In the case of `CN1CCC[C@H]1CCOc1nc(N2C[C@H]3C[C@@H](C2)N3)c2cc(Cl)c(-c3ccc(F)c4sc(N)nc34)c(F)c2n1` [Example 11, 4-(4-((1R,5S)-3,6-diazabicyclo[3.1.1]heptan-3-yl)-6-chloro-8-fluoro-2-(2-((S)-1-methylpyrrolidin-2-yl)ethoxy)quinazolin-7-yl)-7-fluorobenzo[d] thiazol-2-amine], the IC50 in assay [1] was 8250 nM; in assay [3], 29 nM. In assay [2], the “Avg 2 h Coupled Exchange IC50” value is 11 nM.

In the case of `Nc1nc2c(-c3c(Cl)cc4c(N5CCNCC5)nc(OC[C@]56CCCN5[C@@H](CO)CC6)nc4c3F)cccc2s1` [Example 50, ((3R,7aR)-7a-(((7-(2-aminobenzo[d]thiazol-4-yl)-6-chloro-8-fluoro-4-(piperazin-1-yl)quinazolin-2-yl)oxy)methyl)hexahydro-1H-pyrrolizin-3-yl)methanol], the results for the 50% inhibitory concentration (IC50) in assay [1] and in assay [3] were 20200 nM and 55 nM, respectively. Further, the “Avg 2 h Coupled Exchange IC50” value in assay [2] came to 42 nM.

Turning to `CCc1cc2c(N3CCNCC3)nc(OC[C@@H]3CCCN3C)nc2c(F)c1-c1cccc2sc(N)nc12` [Example 152, 4-(6-Ethyl-8-fluoro-2-(((S)-1-methylpyrrolidin-2-yl)methoxy)-4-(piperazin-1-yl)quinazolin-7-yl)benzo[d]thiazol-2-amine], the 50% inhibitory concentration (IC50) was > 25000 nM in assay [1] and 217 nM in assay [3]. For the same compound, in assay [2], the “Avg 2 h Coupled Exchange IC50” value was found to be 95 nM.

As for `C[C@@]1(COc2nc(N3CCNCC3)c3cc(Cl)c(-c4cccc5sc(N)nc45)c(F)c3n2)CCCN1` [Example 73, 4-(6-chloro-8-fluoro-2-(((S)-2-methyl-pyrrolidin-2-yl)methoxy)-4-(piperazin-1-yl)quinazolin-7-yl)benzo[d] thiazol-2-amine], the IC50 in assay [1] was > 10000 nM; in assay [3], 60 nM. Besides, the “Avg 2 h Coupled Exchange IC50” value in assay [2] came to 36 nM.

As to `Nc1nc2c(-c3c(Cl)cc4c(N5CCNCC5)nc(OCC56CCCCN5CCC6)nc4c3F)cccc2s1` (stereo not drawn) [Example 57, 4-(6-chloro-8-fluoro-2-((hexahydro-indolizin-8a(1H)-yl)methoxy)-4-(piperazin-1-yl)quinazolin-7-yl)benzo[d] thiazol-2-amine], the IC50 in assay [1] is > 25000 nM; in assay [3], 265 nM. Also, the “Avg 2 h Coupled Exchange IC50” value in assay [2] turned out to be 141 nM.

`C[C@]1(COc2nc(N3CCNCC3)c3cc(Cl)c(-c4cccc5sc(N)nc45)c(F)c3n2)CCCN1` [Example 74, 4-(6-chloro-8-fluoro-2-(((R)-2-methyl-pyrrolidin-2-yl)methoxy)-4-(piperazin-1-yl)quinazolin-7-yl)benzo[d] thiazol-2-amine]: the half-maximal inhibitory concentration (IC50) was > 10000 nM in assay [1] and 228 nM in assay [3]. Also, the “Avg 2 h Coupled Exchange IC50” value in assay [2] was found to be 122 nM.

`Nc1nc2c(-c3c(Cl)cc4c(N5[C@@H]6CC[C@H]5CNC6)nc(OCC56CCCN5CC(F)(F)C6)nc4c3F)ccc(F)c2s1` (stereo partly drawn) [Example 9, 4-(4-((1R,5S)-3,8-diazabicyclo[3.2.1]octan-8-yl)-6-chloro-2-((2,2-difluorotetrahydro-1H-pyrrolizin-7a(5H)-yl)methoxy)-8-fluoroquinazolin-7-yl)-7-fluorobenzo[d] thiazol-2-amine]: the IC50 in assay [1] worked out at 403 nM; in assay [3], 7 nM. Besides, the “Avg 2 h Coupled Exchange IC50” value in assay [2] stood at 9 nM.

In the case of `Nc1nc2c(-c3c(Cl)cc4c(N5C[C@H]6C[C@@H](C5)N6)nc(OC[C@@]56CCCN5C[C@H](F)C6)nc4c3F)ccc(F)c2s1` [Example 6, 4-(4-((1R,5S)-3,6-diazabicyclo[3.1.1]heptan-3-yl)-6-chloro-8-fluoro-2-(((2R,7aS)-2-fluorotetrahydro-1H-pyrrolizin-7a(5H)-yl)methoxy)quinazolin-7-yl)-7-fluorobenzo[d] thiazol-2-amine], the IC50 in assay [1] was found to be 364 nM; in assay [3], 5 nM. For the same compound, the “Avg 2 h Coupled Exchange IC50” value in assay [2] came out at 5 nM.

In the case of `CN1CCCCC1CCOc1nc(N2CCNCC2)c2cc(Cl)c(-c3cccc4sc(N)nc34)c(F)c2n1` (stereo not drawn) [Example 60, 4-(6-chloro-8-fluoro-2-(2-(1-methylpiperidin-2-yl)ethoxy)-4-(piperazin-1-yl)quinazolin-7-yl)benzo[d] thiazol-2-amine], the figures for the half-maximal inhibitory concentration (IC50) in assay [1] and in assay [3] were > 25000 nM and 480 nM, respectively. Moreover, the “Avg 2 h Coupled Exchange IC50” value in assay [2] was 343 nM.

Consider `CCc1cc2c(N3[C@@H]4CC[C@H]3CNC4)nc(OC[C@@]34CCCN3C[C@H](F)C4)nc2c(F)c1-c1ccc(F)c2sc(N)nc12` [Example 154, 4-(4-((1R,5S)-3,8-diazabicyclo[3.2.1]octan-8-yl)-6-ethyl-8-fluoro-2-(((2R,7aS)-2-fluorotetrahydro-1H-pyrrolizin-7a(5H)-yl)methoxy)quinazolin-7-yl)-7-fluorobenzo[d]thiazol-2-amine], for which the figures for the concentration for half-maximal inhibition (IC50) in assay [1] and in assay [3] were 55 nM and 4 nM, respectively. The “Avg 2 h Coupled Exchange IC50” value in assay [2] stood at 4 nM.

For `Nc1nc2c(-c3c(Cl)cc4c(N5CCNC6CC65)nc(OC[C@@]56CCCN5C[C@H](F)C6)nc4c3F)ccc(F)c2s1` (stereo partly drawn) [Example 39, 4-(4-(2,5-diazabicyclo[4.1.0]heptan-2-yl)-6-chloro-8-fluoro-2-(((2R,7aS)-2-fluorotetrahydro-1H-pyrrolizin-7a(5H)-yl)methoxy)quinazolin-7-yl)-7-fluorobenzo[d] thiazol-2-amine], the IC50 stood at 977 nM in assay [1] and 11 nM in assay [3]. Moreover, the “Avg 2 h Coupled Exchange IC50” value in assay [2] was determined as 14 nM.

Take `Nc1nc2c(-c3c(Cl)cc4c(N5CCNC6CCCC65)nc(OC[C@@]56CCCN5C[C@H](F)C6)nc4c3F)ccc(F)c2s1` (stereo partly drawn) [Example 40, 4-(6-chloro-8-fluoro-2-(((2R,7aS)-2-fluorotetrahydro-1H-pyrrolizin-7a(5H)-yl)methoxy)-4-(octahydro-1H-cyclopenta[b]pyrazin-1-yl)quinazolin-7-yl)-7-fluorobenzo[d] thiazol-2-amine]: the IC50 was 5610 nM in assay [1] and 51 nM in assay [3]. Besides, the “Avg 2 h Coupled Exchange IC50” value in assay [2] is 48 nM.
